Test results as given in article PMC5024786 (Organic letters, 2015).

Target: T1, ACC deaminase (1-aminocyclopropane-1-carboxylic acid deaminase) (Pseudomonas sp. ACP, UniProt Q00740)
T1 sequence (Q00740 1-338): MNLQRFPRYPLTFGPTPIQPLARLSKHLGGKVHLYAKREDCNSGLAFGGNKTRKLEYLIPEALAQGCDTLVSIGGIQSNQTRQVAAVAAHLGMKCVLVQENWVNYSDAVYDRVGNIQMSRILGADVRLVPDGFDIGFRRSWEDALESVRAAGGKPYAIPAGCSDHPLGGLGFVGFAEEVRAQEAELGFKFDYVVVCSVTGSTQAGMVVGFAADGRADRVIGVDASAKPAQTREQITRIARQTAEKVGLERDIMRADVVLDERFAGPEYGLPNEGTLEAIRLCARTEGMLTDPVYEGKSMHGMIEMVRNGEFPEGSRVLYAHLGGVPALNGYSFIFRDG
Format: biochemical

Question: `NC1(C(=O)O)CC1(F)F` (racemic) [compound 3, 1-Amino-2,2-difluorocyclopropane-1-carboxylic acid] was tested. Which Ki did it give?
Answer: 120 ± 40 nM
